# In a melting point compilation (Tetko et al.; mined from patent text by program, amines drawn as free bases though some values may be those of a salt):
row,melting point,SMILES
1,138 to 140 °C,CCCNc1nc(N)nc2c1ncn2C1C=CC(CO)C1 (stereo not drawn)
2,74 to 75 °C,O=C1NCC(CCc2ccccc2Cl)O1 (stereo not drawn)
3,251 to 255 °C,NC(=O)Cc1ccc(-c2nc3ccccc3o2)cc1
4,114 to 116 °C,Nc1cncc(NC(=S)NC2CCCCC2)c1
5,194 to 195 °C,Cc1c2c(c(C(=O)c3ccc(C(C)C)cc3)c(C)c1NC(=O)CC(C)(C)C)OC(C)(C)C2
6,148 to 150 °C,COC(=O)C1=C(C)Nc2ccccc2SC1c1ccc(C)cc1 (stereo not drawn)
7,283 to 284 °C,O=c1[nH]c2ncc(-c3ccc(O)cc3)nc2n1CCc1ccccc1
8,100 to 102 °C,COc1ccc(C2(C#Cc3cccc(N)c3)CCCC(=O)C2)cc1OC1CCCC1 (stereo not drawn)
9,167 to 168 °C,CSc1ccc(-n2cnc3ccc(-c4nnc(CCc5cccc(C(F)(F)F)c5)o4)cc32)cc1
10,196 °C,CN(C)c1cccc2c(S(=O)(=O)Nc3ccc([N+](=O)[O-])cn3)cccc12
11,59 to 60 °C,O=C1C(=O)c2ccccc2C2=C1SCC1(CCCN(CC(O)Cc3ccccc3)C1)O2 (stereo not drawn)
12,156 to 157 °C,O=C(O)Cc1ccc2c(c1)C(=O)Cc1ccccc1O2
13,190 to 192 °C,S=C(NCCN(Cc1ccc(Cl)c(Cl)c1)c1ccc(Br)cn1)Nc1ccc2nn[nH]c2c1
14,172 to 174 °C,COC(=O)C1=C(C)N=C(OC)N(C(=O)Oc2ccc([N+](=O)[O-])cc2)C1c1ccc(F)c(F)c1 (stereo not drawn)
15,149 to 150 °C,NC(=O)c1cc(OCCNCC(O)COc2ccc(CCOCC3CC3)cc2)ccc1O (stereo not drawn)
16,110 °C,CC(=O)Nc1ccc(OCCOCCOc2ncc(Cl)cn2)cc1
17,275 °C,O=C(c1ccccc1)N1Cc2[nH]c3ccccc3c(=O)c2C1
18,124 to 125 °C,CCOC(=O)c1scc2c1ccc1cn[nH]c12
19,221 °C,O=C(NOC1CCCCO1)c1ccc(-c2ccc3ncnc(Nc4ccc(OCc5cccc(F)c5)c(Cl)c4)c3c2)o1 (stereo not drawn)
20,156 to 159 °C,O=C1OCCN1CCCC(c1cc(F)ccc1F)S(=O)(=O)c1ccc(Cl)cc1 (stereo not drawn)

row,melting point,SMILES
1,167 to 168 °C,CC1CC2(C)C(CCC3C4CCC(C5(C)OCCO5)C4(C)CC(=O)C32)CC1O (stereo not drawn)
2,124 to 126 °C,O=C1C[C@@H](O)C[C@H](/C=C/c2c(Cl)cc(Cl)cc2Oc2ccccc2)O1 (relative stereo)
3,> 200 °C,CC1(C)COC(=O)C(C(=O)Nc2cccc(C(F)(F)F)c2)C1=O (stereo not drawn)
4,142 °C,COc1cccc(-c2nc(N)nc(Nc3cccc(Br)c3)n2)c1
5,215 to 217 °C,O=C(NC1CCN(Cc2ccccc2)CC1)c1c[nH]c2ccc(F)cc12
6,115 to 117 °C,COc1c(C(=O)O)n(Cc2ccccc2)c2ccccc12
7,203 to 204 °C,Cc1cc(Br)cnc1CCCCNc1ncc(Cc2ccn(C)c(=O)c2)c(=O)[nH]1
8,145 to 148 °C,CN(C)CCOC1=C(c2ccccc2)CN(Cc2ccco2)C1=O
9,135 to 137 °C,N=C(NCCCc1c[nH]cn1)NC1CCN(c2ccc(C3=NNC(=O)CC3CO)cc2[N+](=O)[O-])CC1 (stereo not drawn)
10,153 to 154 °C,Cc1oc(-c2ccccc2)nc1COc1ccc(COc2ccccc2CC(=O)O)cc1
11,> 154 °C,CC(=O)Nc1cc(C(C)(C)C)c(SC2=C(O)CC(CCc3ccc(O)cc3)(C3CCCCC3)OC2=O)cc1C (stereo not drawn)
12,112 to 120 °C,O=C(Nc1c([N+](=O)[O-])cnn1-c1c(Cl)cc(C(F)(F)F)c(Cl)c1Cl)C(Cl)Cl
13,158 °C,O=C1OC(=O)c2nc3ccc(OC(F)F)cc3cc21
14,173 to 176 °C,Cc1ccc(S(=O)(=O)C2(CCCC#Cc3cccnc3)SC(=O)NC2=O)cc1 (stereo not drawn)
15,197 to 199 °C,CC1(C)Oc2ccc3nc(C(N)=O)ccc3c2C(NCCc2ccccc2)C1O (stereo not drawn)
16,91 to 93 °C,CC(=O)NC(=O)C(C)SC(C)=O (stereo not drawn)
17,164 °C,CCCCCc1noc(-c2ccc(N3CCN(C(=O)c4ccccc4C(F)(F)F)CC3)nn2)n1
18,88 to 89 °C,Cc1ccnc2c1C(=O)CC(c1nccs1)C2 (stereo not drawn)
19,308 to 309 °C,Cc1cccc(C(=O)Nc2ccc(S(N)(=O)=O)cc2)c1SSc1c(C)cccc1C(=O)Nc1ccc(S(N)(=O)=O)cc1
20,84 °C,Cc1ccc(S(=O)(=O)OCC2COc3cc(C)ccc3O2)cc1 (stereo not drawn)

row,melting point,SMILES
1,220 °C,COc1ccc(-c2ccc3ccc(N)nc3n2)cc1
2,122 to 124 °C,Cc1ccc(-c2nc(CCC(O[Si](C)(C)C(C)(C)C)c3ccc(C=O)s3)c(C)o2)cc1 (stereo not drawn)
3,124 to 125 °C,Cc1oc(-c2ccco2)nc1COc1ccc(CON=C(CCC(=O)O)c2ccccc2)cc1
4,237 °C,Cc1cc(OCc2ccc(-c3ccccc3-c3nnn[nH]3)cc2)c(C(=O)O)c(C)n1
5,152 to 154 °C,CN1CC(C(=O)N(C)C(Cc2ccc(Cl)cc2)Cc2ccc(Cl)cc2)=C(O)C1=O
6,102 to 104 °C,COC(=O)CCCNS(=O)(=O)c1cccc2c([N+](=O)[O-])cccc12
7,197 °C,CN1CCC(C(=O)Nc2cccc3nc(NC4CCc5ccccc54)ccc23)CC1 (stereo not drawn)
8,109 to 113 °C,O=C(O)c1ccc(OCCNC(=O)C2Cc3ccccc3N2S(=O)(=O)c2ccc(-c3ccc(F)cc3)cc2)cc1F (stereo not drawn)
9,115 to 118 °C,Cc1cc(SCN(O)CSc2cc(C)c(O)c(C(C)(C)C)c2)cc(C(C)(C)C)c1O
10,168 to 170 °C,CONC(=O)Nc1ccc(-c2sc3c(c2CN(C)C(C)c2ccccc2)c(=O)n(-c2ccccn2)c(=O)n3Cc2c(F)cccc2F)cc1 (stereo not drawn)
11,145 to 147 °C,O=C(Oc1ccccc1O)c1cc(Br)c(Cl)s1
12,185 to 187 °C,COc1cc2cnn(CCCCl)c(=O)c2cc1OC
13,175 to 176 °C,CCC(=O)N1Cc2c(-c3noc(C4CC4)n3)ncn2-c2ccccc21
14,142 to 143 °C,COc1cc(-c2ncnc(OC)c2Cl)c(F)cc1Cl
15,164 to 165 °C,COc1cc2c(cc1C(=O)Cc1ccc(C(=O)O)cc1)C(C)(C)CCC2(C)C
16,238 °C,COc1ccc(-c2[nH]nc3c2C(=O)c2c(NC(=O)Cc4ccc(Cl)cc4)cccc2-3)cc1
17,64.5 to 66 °C,Nc1cc(S)c(Cl)cc1F
18,85 to 90 °C,O=C(O)CC(Sc1ccccc1)c1ccccc1 (stereo not drawn)
19,101 to 103 °C,O=C(NC1(COc2ccc(Br)cc2)COC1)OCc1ccccc1
20,117 to 119 °C,[N-]=[N+]=NCC(O)(Cn1cncn1)c1ccc(Cl)cc1Cl (stereo not drawn)

row,SMILES,melting point
1,CCCC(C)(N)Cc1c[nH]c2ccccc12 (stereo not drawn),73.5 to 74.5 °C
2,CN1CCC(c2cccc3ccc(N)cc23)CC1,170 to 171 °C
3,N#Cc1nn(-c2c(Cl)cc(C(F)(F)F)cc2Cl)c(NCc2ccccn2)c1SC(F)F,117 to 120 °C
4,O=C1OC(Br)c2cc(Br)ccc21 (stereo not drawn),100 °C
5,C1=CC2=NC=NC23CCNCC3N1 (stereo not drawn),94 to 95 °C
6,NCc1nnc2n1-c1sc(Cl)cc1C(c1ccccc1Cl)=NC2,190 to 192 °C
7,O=c1[nH]c2ccc(F)cc2c(=O)n1-c1ccc(Cl)cc1Cl,313 to 314 °C
8,Cc1sc(C2=NOC(c3cc(Cl)cc(Cl)c3)(C(F)(F)F)C2)cc1C(=O)NCC(=O)NCC#N (stereo not drawn),158 to 161 °C
